Source: US7838542B2, “Bicyclic compositions and methods for modulating a kinase cascade” (Kinex Pharmaceuticals, LLC, priority 2006, dated 2010)

Tests used:
isolated kinases = assay: Isolated kinases panel, percent activity relative to control (Table XV); assay type: biochemical
Description: (§1) Table XV illustrates percent activity of isolated kinases in the presence of the AstraZeneca ATP-competitive inhibitor (KX-328, AZ-28) or KX2-391 relative to control (untreated) isolated kinases.

Abl = Abl (Homo sapiens, UniProt P00519); assay: Isolated kinase assay, Abl; assay type: biochemical
Description: as §1

EGFRTK = EGFRTK (Homo sapiens, UniProt P00533); assay: Isolated kinase assay, EGFRTK; assay type: biochemical
Description: as §1

Fyn = Fyn (Homo sapiens, UniProt P06241); assay: Isolated kinase assay, Fyn; assay type: biochemical
Description: as §1

Lck = Lck (Homo sapiens, UniProt P06239); assay: Isolated kinase assay, Lck; assay type: biochemical
Description: as §1

Lyn = Lyn (Homo sapiens, UniProt P07948); assay: Isolated kinase assay, Lyn; assay type: biochemical
Description: as §1

Yes = Yes (Homo sapiens, UniProt P07947); assay: Isolated kinase assay, Yes; assay type: biochemical
Description: as §1

[1] = test system: PDGF receptor tyrosine kinase; assay: Isolated kinase assay, PDGF receptor tyrosine kinase; assay type: biochemical; conditions: @ 10 μM
Description: as §1

Src = Src (Homo sapiens, UniProt P12931); assay: Isolated kinase assay and titration, Src; assay type: biochemical; conditions: titration data
Description: as §1

[2] = test system: c-Src/NIH-3T3 engineered cell line; assay: Src-driven cell growth, c-Src/NIH-3T3; assay type: cell-based
[3] = test system: NCI human colon cancer cell line HT29; assay: Cell growth, HT29; assay type: cell-based
Src-Y416 = assay: Intracellular phosphorylation: Src-Y416 autophosphorylation; assay type: cell-based; conditions: HT29 and c-Src527F/NIH-3T3 cells; 0.2×, 1×, 5×, 25× GI50
Protocol: (§2) HT29 (colon cancer) and c-Src527F/NIH-3T3 (Src transformed) cell lines were treated with KX2-391 or with AstraZeneca's ATP competitive Src inhibitor AZ28. AZ28 serves as a positive comparator to show what a validated Src inhibitor should do in these assays. After treatment with compound, cells were lysed, subjected to PAGE and probed with a battery of antibodies. […] In addition, off-target protein phosphorylation was also investigated. Further, induction of apoptosis was evaluated via Caspase 3 cleavage. Multiple doses of each compound were tested because the trends in response to increasing drug concentration are the most reliable indicator of activity.
(§3) The same range of multiples of the GI50 for AZ28 in these two cell lines was run as a comparison.

FAK Tyr 925 = assay: Intracellular phosphorylation: FAK Tyr 925; assay type: cell-based; conditions: c-Src/NIH-3T3 and HT-29 cells
Protocol: as §2, §3

Shc Y239/240 = assay: Intracellular phosphorylation: Shc Y239/240; assay type: cell-based; conditions: c-Src/NIH-3T3 and HT-29 cells
Protocol: as §2, §3

Paxillin Y-31 = assay: Intracellular phosphorylation: Paxillin Y-31; assay type: cell-based; conditions: c-Src/NIH-3T3 cells
Protocol: as §2, §3
Note: paxillin Y-31 was not detected in HT29 cells with or without added drug.

Caspase-3 = assay: Induction of apoptosis via Caspase 3 cleavage; assay type: cell-based; conditions: HT29 and c-Src527F/NIH-3T3 cells
Protocol: as §2
Cleavage of Caspase-3 is a good measure of induction of apoptosis.

total phosphotyrosine = assay: Total phosphotyrosine levels; assay type: cell-based; conditions: HT29 and c-Src527F/NIH-3T3 cells
Protocol: as §2

[4] = test system: PDGF receptor tyrosine kinase Y572/574; assay: PDGF receptor autophosphorylation Y572/574; assay type: cell-based; conditions: c-Src/NIH-3T3 cells
Protocol: as §2
PDGF receptor tyrosine kinase autophosphorylates on Y572/574. This is thought not to be a direct Src substrate in cells. […] PDGF receptor tyrosine kinase Y572/574 was not detected in HT29 cells with no drug added (as well as with drug added).

FAK Y397 = FAK Y397 autophosphorylation; assay type: cell-based; conditions: c-Src527F/NIH3T3 cells
Protocol: as §2
FAK Y397 is mainly a FAK autophosphorylation site and only a poor Src transphorylation site.

EGFR tyrosine kinase = EGFR tyrosine kinase autophosphorylation; assay type: cell-based; conditions: c-Src/NIH-3T3 and HT-29 cells
Protocol: as §2
This site is not a direct Src phosphorylation site.

CHK1(h) = CHK1(h) (Homo sapiens, UniProt O14757); assay: Isolated kinases, percent activity relative to control (Table XV), CHK1; assay type: biochemical; conditions: @ 10 μM
Description: as §1

FGFR2(h) = FGFR2(h) (Homo sapiens, UniProt P21802); assay: Isolated kinases, percent activity relative to control (Table XV), FGFR2; assay type: biochemical; conditions: @ 10 μM
Description: as §1

IGF-1R(h) = IGF-1R(h) (Homo sapiens, UniProt P08069); assay: Isolated kinases, percent activity relative to control (Table XV), IGF-1R; assay type: biochemical; conditions: @ 10 μM
Description: as §1

IR(h) = IR(h) (Homo sapiens, UniProt P06213); assay: Isolated kinases, percent activity relative to control (Table XV), IR; assay type: biochemical; conditions: @ 10 μM
Description: as §1

MAPK2(h) = MAPK2(h) (Homo sapiens, UniProt P28482); assay: Isolated kinases, percent activity relative to control (Table XV), MAPK2; assay type: biochemical; conditions: @ 10 μM
Description: as §1

PKCα(h) = PKCα(h) (Homo sapiens, UniProt P17252); assay: Isolated kinases, percent activity relative to control (Table XV), PKCα; assay type: biochemical; conditions: @ 10 μM
Description: as §1

Pyk2(h) = Pyk2(h) (Homo sapiens, UniProt Q14289); assay: Isolated kinases, percent activity relative to control (Table XV), Pyk2; assay type: biochemical; conditions: @ 10 μM
Description: as §1

ZAP-70(h) = ZAP-70(h) (Homo sapiens, UniProt P43403); assay: Isolated kinases, percent activity relative to control (Table XV), ZAP-70; assay type: biochemical; conditions: @ 10 μM
Description: as §1

PI3 kinase = assay: Isolated kinases, percent activity relative to control (Table XV), PI3 kinase; assay type: biochemical; conditions: @ 10 μM
Description: as §1

Sequence of Yes (P07947 whole entry): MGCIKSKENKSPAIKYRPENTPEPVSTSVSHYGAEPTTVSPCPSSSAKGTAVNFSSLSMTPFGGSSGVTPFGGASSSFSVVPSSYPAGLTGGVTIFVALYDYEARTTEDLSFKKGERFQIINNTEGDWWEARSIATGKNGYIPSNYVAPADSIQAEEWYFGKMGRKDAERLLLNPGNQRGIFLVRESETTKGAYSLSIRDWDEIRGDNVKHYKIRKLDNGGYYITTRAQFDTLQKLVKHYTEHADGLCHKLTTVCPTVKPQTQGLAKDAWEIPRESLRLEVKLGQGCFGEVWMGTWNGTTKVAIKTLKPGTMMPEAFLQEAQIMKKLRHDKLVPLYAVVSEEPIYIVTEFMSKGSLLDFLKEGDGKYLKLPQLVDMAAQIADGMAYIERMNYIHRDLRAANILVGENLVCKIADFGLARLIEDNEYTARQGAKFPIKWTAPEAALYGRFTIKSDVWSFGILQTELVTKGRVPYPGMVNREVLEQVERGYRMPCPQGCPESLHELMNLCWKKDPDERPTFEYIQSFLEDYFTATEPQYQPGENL
Sequence of Abl (P00519 whole entry): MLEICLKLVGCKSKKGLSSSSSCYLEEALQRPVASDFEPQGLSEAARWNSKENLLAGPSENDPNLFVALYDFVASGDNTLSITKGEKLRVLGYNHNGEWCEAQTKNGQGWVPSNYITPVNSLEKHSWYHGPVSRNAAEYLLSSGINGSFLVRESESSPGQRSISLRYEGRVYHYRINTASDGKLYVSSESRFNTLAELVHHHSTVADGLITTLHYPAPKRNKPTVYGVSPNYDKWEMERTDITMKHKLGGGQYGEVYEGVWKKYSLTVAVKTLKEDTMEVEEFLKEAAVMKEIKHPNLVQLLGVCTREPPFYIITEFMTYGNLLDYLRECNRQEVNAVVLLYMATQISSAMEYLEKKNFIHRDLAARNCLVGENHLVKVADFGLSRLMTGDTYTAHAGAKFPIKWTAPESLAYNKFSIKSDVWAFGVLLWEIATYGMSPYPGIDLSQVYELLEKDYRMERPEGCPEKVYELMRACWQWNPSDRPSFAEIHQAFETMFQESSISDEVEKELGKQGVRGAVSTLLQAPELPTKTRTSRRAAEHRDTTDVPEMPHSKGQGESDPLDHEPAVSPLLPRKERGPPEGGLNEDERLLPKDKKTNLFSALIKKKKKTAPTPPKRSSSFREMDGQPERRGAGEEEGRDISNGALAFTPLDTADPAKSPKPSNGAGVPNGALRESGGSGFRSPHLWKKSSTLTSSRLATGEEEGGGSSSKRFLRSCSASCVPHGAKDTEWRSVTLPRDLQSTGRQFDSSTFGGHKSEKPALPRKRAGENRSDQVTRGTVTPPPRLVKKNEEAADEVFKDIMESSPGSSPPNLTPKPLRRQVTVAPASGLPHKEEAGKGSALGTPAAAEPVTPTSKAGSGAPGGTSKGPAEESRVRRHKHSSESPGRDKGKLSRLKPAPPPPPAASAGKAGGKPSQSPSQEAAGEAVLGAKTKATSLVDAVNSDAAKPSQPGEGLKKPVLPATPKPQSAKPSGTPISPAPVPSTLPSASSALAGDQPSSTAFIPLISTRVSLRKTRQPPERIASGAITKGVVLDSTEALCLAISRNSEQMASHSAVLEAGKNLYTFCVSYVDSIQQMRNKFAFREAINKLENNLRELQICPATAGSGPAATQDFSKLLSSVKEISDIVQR
Sequence of Lyn (P07948 whole entry): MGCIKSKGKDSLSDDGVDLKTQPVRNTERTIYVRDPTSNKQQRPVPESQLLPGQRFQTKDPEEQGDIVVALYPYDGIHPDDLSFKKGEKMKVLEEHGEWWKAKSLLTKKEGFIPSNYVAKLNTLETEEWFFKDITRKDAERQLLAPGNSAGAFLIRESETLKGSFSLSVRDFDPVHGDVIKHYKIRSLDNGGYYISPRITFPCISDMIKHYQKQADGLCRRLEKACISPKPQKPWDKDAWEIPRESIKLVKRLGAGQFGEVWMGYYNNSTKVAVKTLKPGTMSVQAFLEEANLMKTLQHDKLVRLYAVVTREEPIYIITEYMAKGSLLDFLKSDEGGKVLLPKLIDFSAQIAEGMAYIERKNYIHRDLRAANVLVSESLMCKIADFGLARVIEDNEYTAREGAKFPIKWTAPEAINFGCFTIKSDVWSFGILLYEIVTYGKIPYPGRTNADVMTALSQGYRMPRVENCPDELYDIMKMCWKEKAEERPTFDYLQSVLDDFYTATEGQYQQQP
Sequence of Fyn (P06241 whole entry): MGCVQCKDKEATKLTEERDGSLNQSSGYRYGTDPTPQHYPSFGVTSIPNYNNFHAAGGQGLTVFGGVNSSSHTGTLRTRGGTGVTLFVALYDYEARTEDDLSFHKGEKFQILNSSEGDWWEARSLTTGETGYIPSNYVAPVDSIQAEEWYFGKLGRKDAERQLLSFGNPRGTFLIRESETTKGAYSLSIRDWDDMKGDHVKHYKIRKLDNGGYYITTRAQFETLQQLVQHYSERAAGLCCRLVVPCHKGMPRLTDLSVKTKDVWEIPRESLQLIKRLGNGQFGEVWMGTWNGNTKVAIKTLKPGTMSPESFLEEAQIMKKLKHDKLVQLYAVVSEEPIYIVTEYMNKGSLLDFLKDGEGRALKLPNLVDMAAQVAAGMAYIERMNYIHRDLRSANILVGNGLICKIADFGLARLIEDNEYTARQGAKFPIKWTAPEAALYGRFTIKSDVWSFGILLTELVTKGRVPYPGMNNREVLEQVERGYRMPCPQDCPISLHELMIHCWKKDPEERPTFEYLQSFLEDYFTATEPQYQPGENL
Sequence of Lck (P06239 whole entry): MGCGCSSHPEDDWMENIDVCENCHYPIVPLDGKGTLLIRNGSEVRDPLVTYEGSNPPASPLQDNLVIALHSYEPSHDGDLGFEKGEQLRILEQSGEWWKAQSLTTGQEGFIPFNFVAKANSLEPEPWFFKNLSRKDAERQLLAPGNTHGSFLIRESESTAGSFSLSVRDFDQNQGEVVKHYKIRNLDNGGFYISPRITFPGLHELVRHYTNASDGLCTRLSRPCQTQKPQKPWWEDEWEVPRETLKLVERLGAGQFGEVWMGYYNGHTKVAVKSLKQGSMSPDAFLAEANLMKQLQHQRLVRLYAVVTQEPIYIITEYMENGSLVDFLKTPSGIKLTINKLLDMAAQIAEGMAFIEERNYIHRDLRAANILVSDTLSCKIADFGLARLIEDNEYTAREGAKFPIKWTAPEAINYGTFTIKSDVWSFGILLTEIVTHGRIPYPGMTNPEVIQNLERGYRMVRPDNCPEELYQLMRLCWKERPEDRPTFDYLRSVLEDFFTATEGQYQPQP
Sequence of EGFRTK (P00533 25-1210): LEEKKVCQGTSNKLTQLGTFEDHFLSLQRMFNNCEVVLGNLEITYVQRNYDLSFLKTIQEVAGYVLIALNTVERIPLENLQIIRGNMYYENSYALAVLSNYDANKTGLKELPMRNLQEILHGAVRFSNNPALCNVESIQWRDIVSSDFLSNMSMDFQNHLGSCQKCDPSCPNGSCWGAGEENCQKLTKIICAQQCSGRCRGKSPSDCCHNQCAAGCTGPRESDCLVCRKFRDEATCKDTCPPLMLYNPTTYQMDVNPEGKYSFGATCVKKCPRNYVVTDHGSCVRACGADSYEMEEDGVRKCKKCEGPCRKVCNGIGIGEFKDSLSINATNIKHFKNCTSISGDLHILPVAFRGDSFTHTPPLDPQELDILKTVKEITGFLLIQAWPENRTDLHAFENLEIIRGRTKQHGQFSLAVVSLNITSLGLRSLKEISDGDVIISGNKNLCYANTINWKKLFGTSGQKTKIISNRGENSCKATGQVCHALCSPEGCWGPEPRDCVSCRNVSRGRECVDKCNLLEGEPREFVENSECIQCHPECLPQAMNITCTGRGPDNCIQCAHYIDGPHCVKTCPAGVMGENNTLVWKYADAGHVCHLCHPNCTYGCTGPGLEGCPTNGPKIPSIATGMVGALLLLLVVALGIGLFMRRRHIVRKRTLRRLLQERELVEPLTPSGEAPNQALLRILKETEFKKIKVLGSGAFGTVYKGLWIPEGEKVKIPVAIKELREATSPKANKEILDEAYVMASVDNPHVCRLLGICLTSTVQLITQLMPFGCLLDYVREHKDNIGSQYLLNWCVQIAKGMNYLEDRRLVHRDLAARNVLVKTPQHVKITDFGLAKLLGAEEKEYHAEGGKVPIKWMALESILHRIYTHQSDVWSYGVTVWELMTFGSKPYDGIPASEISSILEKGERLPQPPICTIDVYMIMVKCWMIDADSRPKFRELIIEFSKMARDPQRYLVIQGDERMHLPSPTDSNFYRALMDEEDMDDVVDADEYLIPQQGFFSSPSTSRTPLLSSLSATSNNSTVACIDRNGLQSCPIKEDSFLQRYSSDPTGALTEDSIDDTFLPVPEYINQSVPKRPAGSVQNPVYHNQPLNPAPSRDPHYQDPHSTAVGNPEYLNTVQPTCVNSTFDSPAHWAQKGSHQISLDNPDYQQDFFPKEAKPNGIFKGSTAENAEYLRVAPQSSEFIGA
Sequence of ZAP-70(h) (P43403 whole entry): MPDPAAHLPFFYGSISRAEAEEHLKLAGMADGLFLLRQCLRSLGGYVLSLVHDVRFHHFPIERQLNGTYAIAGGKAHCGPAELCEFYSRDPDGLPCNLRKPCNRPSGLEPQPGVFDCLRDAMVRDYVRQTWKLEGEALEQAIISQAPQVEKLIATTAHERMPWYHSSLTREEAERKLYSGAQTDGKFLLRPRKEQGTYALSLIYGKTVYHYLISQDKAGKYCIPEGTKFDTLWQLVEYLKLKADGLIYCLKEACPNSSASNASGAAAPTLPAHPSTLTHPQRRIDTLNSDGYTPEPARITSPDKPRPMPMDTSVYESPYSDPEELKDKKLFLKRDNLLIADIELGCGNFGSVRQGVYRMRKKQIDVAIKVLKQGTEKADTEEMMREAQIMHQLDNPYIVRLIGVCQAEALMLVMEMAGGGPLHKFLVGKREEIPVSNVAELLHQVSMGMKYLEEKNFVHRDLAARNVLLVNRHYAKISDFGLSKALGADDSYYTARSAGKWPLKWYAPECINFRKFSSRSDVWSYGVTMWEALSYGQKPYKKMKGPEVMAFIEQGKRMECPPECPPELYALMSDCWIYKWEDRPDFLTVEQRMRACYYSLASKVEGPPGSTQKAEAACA

O=C(Cc1ccc(-c2ccc(OCCN3CCOCC3)cc2)cn1)NCc1ccccc1 [KX2-391]
activity against isolated kinases (isolated kinases): weak activity against isolated kinases | inhibition of isolated Abl (Abl): poor inhibition | percent activity of isolated kinase relative to control, Ab1(h) (Abl; @ 10 μM): 120% | inhibition of isolated EGFRTK (EGFRTK): poor inhibition | percent activity of isolated kinase relative to control, EGFR(h) (EGFRTK; @ 10 μM): 134% | inhibition of isolated Fyn (Fyn): poor inhibition | percent activity of isolated kinase relative to control, Fyn(h) (Fyn; @ 10 μM): 85% | inhibition of isolated Lck (Lck): poor inhibition | percent activity of isolated kinase relative to control, Lck(h) (Lck; @ 10 μM): 109% | inhibition of isolated Lyn (Lyn): poor inhibition | percent activity of isolated kinase relative to control, Lyn(h) (Lyn; @ 10 μM): 113% | inhibition of isolated Yes (Yes): poor inhibition | percent activity of isolated kinase relative to control, Yes(h) (Yes; @ 10 μM): 92% | percent activity of isolated kinase relative to control, PDGFRβ(h) [1]: 110% | IC50 (Src): 46000 nM | GI50 [2]: 13 nM | GI50 [3]: 23 nM | Src-Y416 autophosphorylation (Src-Y416): expected dose response | phosphorylation of FAK Tyr 925 (FAK Tyr 925): inhibited Src trans-phosphorylation | phosphorylation of Shc Y239/240 (Shc Y239/240): inhibited Src trans-phosphorylation | phosphorylation of Paxillin Y-31 (Paxillin Y-31): inhibited Src trans-phosphorylation | induction of apoptosis (Caspase-3 cleavage) (Caspase-3): very effective in inducing apoptosis | total phosphotyrosine levels (total phosphotyrosine): reduction in the total phosphotyrosine levels | PDGF receptor autophosphorylation [4]: Some effect is seen | FAK autophosphorylation (Y397) (FAK Y397): no inhibition of FAK autophosphorylation | EGFR tyrosine kinase autophosphorylation (EGFR tyrosine kinase): less active | percent activity of isolated kinase relative to control, CHK1(h) (CHK1(h)): 105% | percent activity of isolated kinase relative to control, FGFR2(h) (FGFR2(h)): 94% | percent activity of isolated kinase relative to control, IGF-1R(h) (IGF-1R(h)): 101% | percent activity of isolated kinase relative to control, IR(h) (IR(h)): 112% | percent activity of isolated kinase relative to control, MAPK2(h) (MAPK2(h)): 112% | percent activity of isolated kinase relative to control, PKCα(h) (PKCα(h)): 111% | percent activity of isolated kinase relative to control, Pyk2(h) (Pyk2(h)): 97% | percent activity of isolated kinase relative to control, ZAP-70(h) (ZAP-70(h)): 108% | percent activity of isolated kinase relative to control, PI3 kinase (PI3 kinase): 100%
